Experimental data published in ChEMBL document CHEMBL5620440, “Anti-trypanosomal Lignans Isolated from Salvadoran Peperomia pseudopereskiifolia” (J Nat Prod, 2024).
The source made the active and inactive calls. The calls are words filed in the database; no cut-off is given here.

How the values were obtained:
[1] = system: Trypanosoma cruzi; assay: Antitrypanosomal activity against Trypanosoma cruzi Tulahuen amastigotes infected in human HT-1080 cells assessed as reduction in parasite growth by microscopic analysis; assay type: functional, organism-based
[2] = Cytotoxicity against human HT-1080 cells assessed reduction in cell viability; assay type: toxicity, cell-based
[3] = Selectivity index, ratio of CC50 for cytotoxicity for human HT-1080 cells to IC50 for antitrypanosomal activity against Trypanosoma cruzi Tulahuen infected in human HT-1080 cells; assay type: toxicity, cell-based; conditions: read-out: Ratio CC50/IC50
[4] = system: Trypanosoma cruzi; assay: Potency index, ratio of benznidazole IC50 to test compound IC50 for antitrypanosomal activity against Trypanosoma cruzi Tulahuen amastigotes infected in human HT-1080 cells assessed as reduction in parasite growth by microscopic analysis; assay type: functional

SMILES | IC50 [1] [µM] | CC50 [2] [µM] | selectivity ratio [3] | Activity [1] | Ratio IC50 [4]
COc1ccc([C@@H](O)[C@H]2CO[C@@H](c3ccc(OC)c(OC)c3)[C@@H]2COC(C)=O)cc1OC | 10.5 | > 100 | > 9.52 | – | –
COc1ccc([C@@H](O)[C@H]2CO[C@@H](c3ccc(OCc4ccccc4)c(OC)c3)[C@@H]2COC(C)=O)cc1OC | 2.8 | > 100 | > 35.7 | – | –
O=C(Cn1ccnc1[N+](=O)[O-])NCc1ccccc1 [BENZNIDAZOLE] | 1.1 | > 100 | > 90.9 | – | –
COc1ccc([C@@H](O)[C@H]2CO[C@@H](c3ccc(OC)c(OC)c3)[C@@H]2CO)cc1OC | – | – | – | inactive | –
COc1cc([C@@H]2OC[C@H]([C@H](O)c3ccc(OC)c(OC)c3)[C@H]2CO)ccc1O | – | – | – | inactive | –
CCOc1ccc([C@@H]2OC[C@H]([C@H](O)c3ccc(OC)c(OC)c3)[C@H]2COC(C)=O)cc1OC | 3.3 | > 100 | > 30.3 | – | –
COc1cc([C@@H]2OC[C@H]([C@H](O)c3ccc(OC)c(OC)c3)[C@H]2COC(C)=O)ccc1O | – | – | – | inactive | –
CCOc1ccc([C@@H]2OC[C@H](C(=O)c3ccc(OC)c(OC)c3)[C@H]2COC(C)=O)cc1OC | – | – | – | inactive | –
COc1c([C@H]2OC[C@H]3[C@H]2CO[C@@H]3c2ccc3c(c2)OCO3)ccc2c1OCO2 | 0.4 | > 100 | > 250 | – | ~3
